Data as given in PubChem BioAssay (NCI).
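Five compound concentrations were applied to cells in 96-well plates for 48 hours; endpoints were derived by simple linear interpolation of the resulting dose-response curve. TGI denotes the concentration required for complete inhibition of growth.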

Legend:
Test in all cases: growth of human tumour cells (NCI), 48 h
U251 CNS = tested on: U251 CNS
MDA-MB-231 breast = tested on: MDA-MB-231 breast
MALME-3M melanoma = tested on: MALME-3M melanoma
MDA-MB-435 = tested on: MDA-MB-435
OVCAR-5 ovarian = tested on: OVCAR-5 ovarian
HS 578T breast = tested on: HS 578T breast
MOLT-4 leukemia = tested on: MOLT-4 leukemia
SNB-19 CNS = tested on: SNB-19 CNS
SF-539 CNS = tested on: SF-539 CNS
HL-60(TB) leukemia = tested on: HL-60(TB) leukemia
RPMI-8226 leukemia = tested on: RPMI-8226 leukemia
OVCAR-4 ovarian = tested on: OVCAR-4 ovarian

Row | SMILES | TGI (U251 CNS) [µM] | TGI (MDA-MB-231 breast) [µM] | TGI (MALME-3M melanoma) [µM] | TGI (MDA-MB-435) [µM] | TGI (OVCAR-5 ovarian) [µM] | TGI (HS 578T breast) [µM] | TGI (MOLT-4 leukemia) [µM] | TGI (SNB-19 CNS) [µM] | TGI (SF-539 CNS) [µM] | TGI (HL-60(TB) leukemia) [µM] | TGI (RPMI-8226 leukemia) [µM] | TGI (OVCAR-4 ovarian) [µM]
1 | CCOC(=O)C(=CNC(=S)Nc1c(CC)cccc1CC)C(=O)OCC | > 100 | > 100 | > 100 | > 100 | > 100 | > 100 | > 100 | > 100 | > 100 | > 100 | > 100 | > 100
2 | O=C(NCC(C(=O)OCc1ccccc1)C(=O)OCc1ccccc1)OCc1ccccc1 | > 100 | – | > 100 | > 100 | > 100 | > 100 | > 100 | > 100 | > 100 | – | > 100 | –
3 | CC(C)(C)N(Cc1ccoc1)C(=O)/C=C\S(=O)c1ccccc1 (stereo unspecified) | 29.9 | 42.3 | – | 20.7 | 59.2 | 68 | > 100 | 88.8 | 42.9 | 47.5 | 89.6 | > 100
4 | CC(C)c1ccc2[nH]c(O)c(C3=Nc4ccccc4C3=O)c2c1 | 41.4 | 48 | > 100 | > 100 | > 100 | 85.3 | 61.5 | 57.2 | – | – | > 100 | 12.8
5 | COc1cc(/C=C2\CC3C4CC[C@H]5C[C@@H](O)CC[C@]5(C)C4CC[C@]3(C)C2=O)cc(OC)c1OC (stereo partly specified) | 41.5 | > 100 | 49.1 | 85.8 | > 100 | > 100 | 69.5 | > 100 | 98.2 | 43.2 | 27.8 | 57.2
6 | Cc1ccc(CCCCCOc2ccc(C3=NCCO3)cc2)s1 | > 100 | > 100 | > 100 | > 100 | > 100 | > 100 | > 100 | > 100 | – | > 100 | > 100 | > 100
7 | CCCCc1ccc(Nc2nc(N)c3ncn(COCCO)c3n2)cc1 | 66.4 | 76.7 | 52.7 | 51.2 | > 100 | 75 | > 100 | > 100 | 60.6 | > 100 | 94.2 | > 100
8 | Fc1ccc(Nc2nnc(-c3ccccn3)s2)cc1 | > 100 | > 100 | > 100 | > 100 | > 100 | > 100 | > 100 | > 100 | > 100 | > 100 | > 100 | > 100
9 | CC(C)(C)c1cc(C(=O)/C=C/c2ccc3c(c2)CCO3)cc(C(C)(C)C)c1O | 3.17 | 6.54 | > 100 | 0.91 | > 27.6 | > 29.5 | > 31.3 | > 82.3 | 1.46 | 5.53 | 4.45 | –
10 | [C-]#[N+]C1(C(=O)OCC)CC1 | > 100 | – | > 100 | > 100 | > 100 | > 100 | > 100 | > 100 | > 100 | > 100 | > 100 | > 100
